Where “and” joins values, the source holds several entries; their conditions need not be identical. Equal entries are not always repeated.
Experiments:
Assay type in all cases: functional
[1] = system: NCI-H226; assay: Growth inhibition of human NCI-H226 cells assessed as growth percentage at 10 uM incubated for 48 hrs by sulforhodamine B assay relative to control; conditions: read-out: Activity
[2] = system: K562; assay: Growth inhibition of human K562 cells assessed as growth percentage at 100 uM incubated for 48 hrs by sulforhodamine B assay relative to control; conditions: read-out: Activity
[3] = system: MDA-MB-468; assay: Growth inhibition of human MDA-MB-468 cells assessed as growth percentage at 100 uM incubated for 48 hrs by sulforhodamine B assay relative to control; conditions: read-out: Activity
[4] = system: SN12C; assay: Growth inhibition of human SN12C cells assessed as growth percentage at 10 uM incubated for 48 hrs by sulforhodamine B assay relative to control; conditions: read-out: Activity
[5] = system: A549; assay: Growth inhibition of human A549/ATCC cells assessed as growth percentage at 0.01 uM incubated for 48 hrs by sulforhodamine B assay relative to control; conditions: read-out: Activity
[6] = system: HL-60(TB); assay: Growth inhibition of human HL-60(TB) cells assessed as growth percentage at 10 uM incubated for 48 hrs by sulforhodamine B assay relative to control; conditions: read-out: Activity
[7] = system: SN12C; assay: Growth inhibition of human SN12C cells assessed as growth percentage at 1 uM incubated for 48 hrs by sulforhodamine B assay relative to control; conditions: read-out: Activity
[8] = system: SNB-19; assay: Growth inhibition of human SNB-19 cells incubated for 48 hrs by sulforhodamine B assay
[9] = system: SF-295; assay: Growth inhibition of human SF-295 cells assessed as growth percentage at 0.01 uM incubated for 48 hrs by sulforhodamine B assay relative to control; conditions: read-out: Activity
[10] = system: COLO 205; assay: Growth inhibition of human COLO 205 cells assessed as growth percentage at 0.01 uM incubated for 48 hrs by sulforhodamine B assay relative to control; conditions: read-out: Activity
[11] = system: SK-OV-3; assay: Growth inhibition of human SK-OV-3 cells assessed as growth percentage at 0.01 uM incubated for 48 hrs by sulforhodamine B assay relative to control; conditions: read-out: Activity
[12] = system: NCI-H23; assay: Growth inhibition of human NCI-H23 cells assessed as growth percentage at 1 uM incubated for 48 hrs by sulforhodamine B assay relative to control; conditions: read-out: Activity
[13] = system: MCF7; assay: Growth inhibition of human MCF7 cells assessed as growth percentage at 0.1 uM incubated for 48 hrs by sulforhodamine B assay relative to control; conditions: read-out: Activity
[14] = system: HCT-116; assay: Growth inhibition of human HCT-116 cells assessed as growth percentage at 10 uM incubated for 48 hrs by sulforhodamine B assay relative to control; conditions: read-out: Activity
[15] = system: U-251; assay: Growth inhibition of human U-251 cells assessed as growth percentage at 0.1 uM incubated for 48 hrs by sulforhodamine B assay relative to control; conditions: read-out: Activity
[16] = system: 786-0; assay: Growth inhibition of human 786-0 cells incubated for 48 hrs by sulforhodamine B assay
[17] = system: Malme-3M; assay: Growth inhibition of human Malme-3M cells assessed as growth percentage at 0.01 uM incubated for 48 hrs by sulforhodamine B assay relative to control; conditions: read-out: Activity
[18] = system: UO-31; assay: Growth inhibition of human UO-31 cells assessed as growth percentage at 100 uM incubated for 48 hrs by sulforhodamine B assay relative to control; conditions: read-out: Activity
[19] = system: NCI-H522; assay: Growth inhibition of human NCI-H522 cells assessed as growth percentage at 10 uM incubated for 48 hrs by sulforhodamine B assay relative to control; conditions: read-out: Activity
[20] = system: NCI-H460; assay: Growth inhibition of human NCI-H460 cells assessed as growth percentage at 0.1 uM incubated for 48 hrs by sulforhodamine B assay relative to control; conditions: read-out: Activity
[21] = system: SR; assay: Growth inhibition of human SR cells assessed as growth percentage at 100 uM incubated for 48 hrs by sulforhodamine B assay relative to control; conditions: read-out: Activity
[22] = system: RPMI-8226; assay: Growth inhibition of human RPMI-8226 cells assessed as growth percentage at 0.01 uM incubated for 48 hrs by sulforhodamine B assay relative to control; conditions: read-out: Activity
[23] = system: RPMI-8226; assay: Growth inhibition of human RPMI-8226 cells assessed as growth percentage at 100 uM incubated for 48 hrs by sulforhodamine B assay relative to control; conditions: read-out: Activity
[24] = system: SF-268; assay: Growth inhibition of human SF-268 cells assessed as growth percentage at 100 uM incubated for 48 hrs by sulforhodamine B assay relative to control; conditions: read-out: Activity
[25] = system: K562; assay: Growth inhibition of human K562 cells assessed as growth percentage at 1 uM incubated for 48 hrs by sulforhodamine B assay relative to control; conditions: read-out: Activity
[26] = system: HOP-92; assay: Growth inhibition of human HOP-92 cells assessed as growth percentage at 10 uM incubated for 48 hrs by sulforhodamine B assay relative to control; conditions: read-out: Activity
[27] = system: OVCAR-8; assay: Growth inhibition of human OVCAR-8 cells assessed as growth percentage at 1 uM incubated for 48 hrs by sulforhodamine B assay relative to control; conditions: read-out: Activity
[28] = system: OVCAR-4; assay: Growth inhibition of human OVCAR-4 cells assessed as growth percentage at 0.01 uM incubated for 48 hrs by sulforhodamine B assay relative to control; conditions: read-out: Activity
[29] = system: UACC-257; assay: Growth inhibition of human UACC-257 cells assessed as growth percentage at 10 uM incubated for 48 hrs by sulforhodamine B assay relative to control; conditions: read-out: Activity
[30] = system: HCT-116; assay: Antiproliferative activity against human HCT-116 cells assessed as cell growth inhibition measured after 72 hrs by MTT assay
[31] = system: HT-29; assay: Growth inhibition of human HT-29 cells assessed as growth percentage at 10 uM incubated for 48 hrs by sulforhodamine B assay relative to control; conditions: read-out: Activity
[32] = system: UACC-62; assay: Growth inhibition of human UACC-62 cells assessed as growth percentage at 1 uM incubated for 48 hrs by sulforhodamine B assay relative to control; conditions: read-out: Activity
[33] = system: MDA-MB-468; assay: Growth inhibition of human MDA-MB-468 cells assessed as growth percentage at 1 uM incubated for 48 hrs by sulforhodamine B assay relative to control; conditions: read-out: Activity
[34] = system: SK-MEL-5; assay: Growth inhibition of human SK-MEL-5 cells assessed as growth percentage at 10 uM incubated for 48 hrs by sulforhodamine B assay relative to control; conditions: read-out: Activity
[35] = system: OVCAR-3; assay: Growth inhibition of human OVCAR-3 cells assessed as growth percentage at 0.1 uM incubated for 48 hrs by sulforhodamine B assay relative to control; conditions: read-out: Activity
[36] = system: T47D; assay: Growth inhibition of human T47D cells assessed as growth percent at 0.1 uM incubated for 48 hrs by sulforhodamine B assay relative to control; conditions: read-out: Activity
[37] = system: UO-31; assay: Growth inhibition of human UO-31 cells assessed as growth percentage at 10 uM incubated for 48 hrs by sulforhodamine B assay relative to control; conditions: read-out: Activity
[38] = system: CAKI-1; assay: Growth inhibition of human CAKI-1 cells incubated for 48 hrs by sulforhodamine B assay
[39] = system: Hs-578T; assay: Growth inhibition of human Hs-578T cells assessed as growth percentage at 10 uM incubated for 48 hrs by sulforhodamine B assay relative to control; conditions: read-out: Activity

Nc1nc2[nH]c(CN3CCN(c4cc(Cl)cc(Cl)c4)CC3)c(CN3CCN(c4cc(Cl)cc(Cl)c4)CC3)c2c(=O)[nH]1 gave a growth at 10 µM [1] of 96.5%, a growth at 100 µM [2] of 3% and a growth at 100 µM [3] of -44%. For the same molecule, the growth at 10 µM [4] was 73.1%, the growth at 0.01 µM [5] was 97% and the growth at 10 µM [6] was 24.4%. The growth at 1 µM [7] was 95%, the GI50 [8] was 1.77 µM and the TGI [8] was 3.67 µM. It also gave a growth at 0.01 µM [9] of 87%, a growth at 0.01 µM [10] of 95% and a growth at 0.01 µM [11] of 95%. For the same molecule, the growth at 1 µM [12] was 103%, the growth at 0.1 µM [13] was 90% and the growth at 10 µM [14] was -10.2%. For the same molecule, the growth at 0.1 µM [15] was 97%, the GI50 [16] was 1.57 µM and the TGI [16] was 3.18 µM. The growth at 0.01 µM [17] was 95%, the growth at 100 µM [18] was -57% and the growth at 10 µM [19] was 83.3%. For the same molecule, the growth at 0.1 µM [20] was 104%, the growth at 100 µM [21] was -30% and the growth at 0.01 µM [22] was 102%. The growth at 100 µM [23] was -19%, the growth at 100 µM [24] was -59% and the growth at 1 µM [25] was 83%. It also gave a growth at 10 µM [26] of 66.2%, a growth at 1 µM [27] of 96% and a growth at 0.01 µM [28] of 95%. It also gave a growth at 10 µM [29] of 97.6%, a GI50 [30] of 2.89 µM and a growth at 10 µM [31] of 33.4%. The growth at 1 µM [32] was 96%, the growth at 1 µM [33] was 85% and the growth at 10 µM [34] was 91%. For the same molecule, the growth at 0.1 µM [35] was 106%, the growth at 0.1 µM [36] was 90% and the growth at 10 µM [37] was 75.1%. The TGI ([38]; 48 h) was 18 µM and 1.8 µM, the CC50 ([38]; 48 h, read-out: LC50 (the source's name)) was 43.7 µM and 4.37 µM and the GI50 ([38]; Homo sapiens, CAKI-1) was 5.1 µM. It also gave a growth at 10 µM [39] of 98.8%.

From ChEMBL document CHEMBL4673219, “Novel 5,6-disubstituted pyrrolo[2,3-d]pyrimidine derivatives as broad spectrum antiproliferative agents: Synthesis, cell based assays, kinase profile and molecular docking study” (Bioorg Med Chem, 2018)
